# PubChem BioAssay AID330 (DTP/NCI, 2004)
# “And” between values parts separate entries of the source, which are not always exact repeats. Identical values can stand only once. Inconclusive results and toxic doses are left out.
# System: P388 leukemia ip, CD2F1 mice, survival T/C
# Assay: NCI In Vivo Anticancer Drug Screen. Data for tumor model P388 Leukemia (intraperitoneal) in CD2F1 (CDF1) mice
# Details: endpoint: median survival time, higher = longer survival
# In short: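 Mice carrying the transplanted tumor received test compound or vehicle. Survival was recorded in each group, and the value is the treated-group measurement divided by that of the vehicle-treated control group.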
compound,measurement,setting,value
C[N+]1(C)CCC(=O)C(c2ccccc2)C1 (stereo not given),T/C,"dose: 50.0 mg/kg/injection, schedule: Q04DX003 (ip), vehicle: saline",113 % of control
same,T/C,"dose: 100.0 mg/kg/injection, schedule: Q04DX003 (ip), vehicle: saline",113 % of control
Cc1cc(=O)oc2cc(O)c(C(=O)/C=C/N(C)C)cc12,T/C,"dose: 60.0 mg/kg/injection, schedule: Q01DX005 (ip), vehicle: saline with Tween-80",92 % of control
same,T/C,"dose: 120.0 mg/kg/injection, schedule: Q01DX005 (ip), vehicle: saline with Tween-80",95 % of control
same,T/C,"dose: 240.0 mg/kg/injection, schedule: Q01DX005 (ip), vehicle: saline with Tween-80",86 % of control
C=CC(c1ccccc1)C(O)(Cc1ccccc1)Cc1ccccc1 (stereo not given),T/C,"dose: 6.25 mg/kg/injection, schedule: Q01DX009 (ip), vehicle: DMSO",104 % of control
same,T/C,"dose: 12.5 mg/kg/injection, schedule: Q01DX009 (ip), vehicle: DMSO",99 % of control
same,T/C,"dose: 25.0 mg/kg/injection, schedule: Q01DX009 (ip), vehicle: DMSO",95 % of control
CC(=O)[C@]1(O)Cc2c(O)c3c(c(O)c2[C@@H](OC2CC(N)C(O)C(C)O2)C1)C(=O)c1c(O)cccc1C3=O (stereo not given in full),T/C,"dose: 0.05 mg/kg/injection, schedule: Q01DX009 (ip), vehicle: saline",150 % of control
same,T/C,"dose: 0.08 mg/kg/injection, schedule: Q01DX009 (ip), vehicle: saline",159 % of control
same,T/C,"dose: 0.08 mg/kg/injection, schedule: Q04DX003 (ip), vehicle: water",100 % of control and 97 % of control
same,T/C,"dose: 0.1 mg/kg/injection, schedule: Q04DX003 (ip), vehicle: saline",123 % of control
same,T/C,"dose: 0.14 mg/kg/injection, schedule: Q01DX009 (ip), vehicle: saline",177 % of control
same,T/C,"dose: 0.16 mg/kg/injection, schedule: Q04DX003 (ip), vehicle: water",109 % of control and 87 % of control
same,T/C,"dose: 0.25 mg/kg/injection, schedule: Q04DX003 (ip), vehicle: water",119 % of control and 94 % of control
same,T/C,"dose: 0.3 mg/kg/injection, schedule: Q04DX003 (ip), vehicle: saline",154 % of control
same,T/C,"dose: 0.32 mg/kg/injection, schedule: Q04DX003 (ip), vehicle: saline",159 % of control
same,T/C,"dose: 0.36 mg/kg/injection, schedule: Q04DX003 (ip), vehicle: saline",160 % of control and 173 % of control
same,T/C,"dose: 0.36 mg/kg/injection, schedule: Q04DX003 (ip), vehicle: water",161 % of control
same,T/C,"dose: 0.39 mg/kg/injection, schedule: Q01DX001 (ip), vehicle: saline",159 % of control
same,T/C,"dose: 0.39 mg/kg/injection, schedule: Q01DX009 (ip), vehicle: saline",100 % of control
same,T/C,"dose: 0.39 mg/kg/injection, schedule: Q04DX003 (ip), vehicle: saline",163 % of control
same,T/C,"dose: 0.4 mg/kg/injection, schedule: Q04DX003 (ip), vehicle: saline",154 % of control
same,T/C,"dose: 0.43 mg/kg/injection, schedule: Q01DX001 (ip), vehicle: saline",152 % of control and 160 % of control
same,T/C,"dose: 0.43 mg/kg/injection, schedule: Q04DX003 (ip), vehicle: saline",165 % of control
same,T/C,"dose: 0.5 mg/kg/injection, schedule: Q04DX003 (ip), vehicle: water",116 % of control and 124 % of control
same,T/C,"dose: 0.54 mg/kg/injection, schedule: Q04DX003 (ip), vehicle: saline",161 % of control
same,T/C,"dose: 0.6 mg/kg/injection, schedule: Q04DX003 (ip), vehicle: saline",154 % of control and 168 % of control
same,T/C,"dose: 0.6 mg/kg/injection, schedule: Q04DX003 (ip), vehicle: water",170 % of control
same,T/C,"dose: 0.6 mg/kg/injection, schedule: Q04DX003 (oral), vehicle: saline",112 % of control
same,T/C,"dose: 0.64 mg/kg/injection, schedule: Q04DX003 (ip), vehicle: water",109 % of control and 115 % of control and 274 % of control
same,T/C,"dose: 0.65 mg/kg/injection, schedule: Q01DX001 (ip), vehicle: saline",172 % of control
same,T/C,"dose: 0.65 mg/kg/injection, schedule: Q04DX003 (ip), vehicle: saline",172 % of control
same,T/C,"dose: 0.72 mg/kg/injection, schedule: Q01DX001 (ip), vehicle: saline",161 % of control and 180 % of control
same,T/C,"dose: 0.72 mg/kg/injection, schedule: Q04DX003 (ip), vehicle: saline",167 % of control
same,T/C,"dose: 0.9 mg/kg/injection, schedule: Q04DX003 (ip), vehicle: saline",160 % of control and 186 % of control
same,T/C,"dose: 1.0 mg/kg/injection, schedule: Q04DX003 (ip), vehicle: saline",92 % of control and 94 % of control
same,T/C,"dose: 1.0 mg/kg/injection, schedule: Q04DX003 (ip), vehicle: water",102 % of control
same,T/C,"dose: 1.0 mg/kg/injection, schedule: Q04DX003 (oral), vehicle: saline",110 % of control
same,T/C,"dose: 1.08 mg/kg/injection, schedule: Q01DX001 (ip), vehicle: saline",95 % of control
same,T/C,"dose: 1.08 mg/kg/injection, schedule: Q04DX003 (ip), vehicle: saline",100 % of control
same,T/C,"dose: 1.2 mg/kg/injection, schedule: Q01DX001 (ip), vehicle: saline",105 % of control
same,T/C,"dose: 1.2 mg/kg/injection, schedule: Q01DX001 (oral), vehicle: saline",110 % of control
same,T/C,"dose: 1.2 mg/kg/injection, schedule: Q04DX003 (ip), vehicle: saline",110 % of control
same,T/C,"dose: 1.5 mg/kg/injection, schedule: Q04DX003 (ip), vehicle: saline",108 % of control
same,T/C,"dose: 1.67 mg/kg/injection, schedule: Q04DX003 (oral), vehicle: saline",115 % of control
same,T/C,"dose: 2.0 mg/kg/injection, schedule: Q01DX001 (oral), vehicle: saline",102 % of control
same,T/C,"dose: 2.0 mg/kg/injection, schedule: Q04DX003 (ip), vehicle: water",116 % of control
same,T/C,"dose: 2.78 mg/kg/injection, schedule: Q04DX003 (oral), vehicle: saline",106 % of control and 110 % of control
same,T/C,"dose: 3.2 mg/kg/injection, schedule: Q04DX003 (ip), vehicle: saline",105 % of control
same,T/C,"dose: 3.33 mg/kg/injection, schedule: Q01DX001 (oral), vehicle: saline",111 % of control and 116 % of control
same,T/C,"dose: 4.63 mg/kg/injection, schedule: Q04DX003 (oral), vehicle: saline",113 % of control
same,T/C,"dose: 5.56 mg/kg/injection, schedule: Q01DX001 (oral), vehicle: saline",114 % of control
same,T/C,"dose: 6.4 mg/kg/injection, schedule: Q04DX003 (ip), vehicle: saline",99 % of control
same,T/C,"dose: 7.72 mg/kg/injection, schedule: Q04DX003 (oral), vehicle: saline",166 % of control
same,T/C,"dose: 9.26 mg/kg/injection, schedule: Q01DX001 (oral), vehicle: saline",152 % of control
same,T/C,"dose: 12.9 mg/kg/injection, schedule: Q04DX003 (oral), vehicle: saline",164 % of control
same,T/C,"dose: 6.25 micrograms/kg/injection, schedule: Q04DX003 (ip), vehicle: saline",120 % of control
same,T/C,"dose: 15.0 micrograms/kg/injection, schedule: Q04DX003 (ip), vehicle: saline",111 % of control
same,T/C,"dose: 25.0 micrograms/kg/injection, schedule: Q04DX003 (ip), vehicle: saline",116 % of control
same,T/C,"dose: 31.0 micrograms/kg/injection, schedule: Q04DX003 (ip), vehicle: saline",111 % of control
same,T/C,"dose: 50.0 micrograms/kg/injection, schedule: Q04DX003 (ip), vehicle: saline",111 % of control
same,T/C,"dose: 62.0 micrograms/kg/injection, schedule: Q04DX003 (ip), vehicle: saline",107 % of control
same,T/C,"dose: 125.0 micrograms/kg/injection, schedule: Q04DX003 (ip), vehicle: saline",107 % of control
same,T/C,"dose: 200.0 micrograms/kg/injection, schedule: Q04DX003 (ip), vehicle: saline",119 % of control
same,T/C,"dose: 500.0 micrograms/kg/injection, schedule: Q04DX003 (ip), vehicle: saline",156 % of control
same,T/C,"dose: 800.0 micrograms/kg/injection, schedule: Q04DX003 (ip), vehicle: saline",122 % of control
same,T/C,"dose: 1000.0 micrograms/kg/injection, schedule: Q04DX003 (ip), vehicle: saline",166 % of control
same,T/C,"dose: 2000.0 micrograms/kg/injection, schedule: Q04DX003 (ip), vehicle: saline",88 % of control
same,T/C,"dose: 3200.0 micrograms/kg/injection, schedule: Q04DX003 (ip), vehicle: saline",103 % of control
same,T/C,"dose: 6400.0 micrograms/kg/injection, schedule: Q04DX003 (ip), vehicle: saline",116 % of control
COc1cc([C@@H]2c3cc4c(cc3C[C@@H]3COC(=O)[C@H]32)OCO4)cc(OC)c1OC,T/C,"dose: 12.5 mg/kg/injection, schedule: Q04DX002 (ip), vehicle: saline with Tween-80",86 % of control
same,T/C,"dose: 25.0 mg/kg/injection, schedule: Q04DX002 (ip), vehicle: saline with Tween-80",96 % of control
same,T/C,"dose: 50.0 mg/kg/injection, schedule: Q04DX002 (ip), vehicle: saline with Tween-80",106 % of control
O=C1CNC(=O)c2cc(N=Cc3ccccc3O)ccc2N1,T/C,"dose: 100.0 mg/kg/injection, schedule: Q04DX003 (ip), vehicle: saline with Tween-80",111 % of control
same,T/C,"dose: 200.0 mg/kg/injection, schedule: Q04DX003 (ip), vehicle: saline with Tween-80",114 % of control
same,T/C,"dose: 400.0 mg/kg/injection, schedule: Q04DX003 (ip), vehicle: saline with Tween-80",104 % of control
O=C1CN(c2cccc(C(F)(F)F)c2)C(=O)CN1/N=C/c1ccc[nH]1,T/C,"dose: 50.0 mg/kg/injection, schedule: Q01DX005 (ip), vehicle: saline with Tween-80",101 % of control
same,T/C,"dose: 100.0 mg/kg/injection, schedule: Q01DX005 (ip), vehicle: saline with Tween-80",100 % of control
same,T/C,"dose: 200.0 mg/kg/injection, schedule: Q01DX005 (ip), vehicle: saline with Tween-80",99 % of control
